Assay results reported in US6331555A, “Treatment of platelet derived growth factor related disorders such as cancers” (priority 1999, dated 2001).
Where two headings read alike, the source gives them in different places.

How the values were obtained:
[1] = target: T1, FLK-1 (Mus musculus, UniProt P35918); test: Receptor tyrosine kinase inhibition, FLK-1; format: cell-based
T1 construct: expressed in transfected cells; host or cells: NIH3T3 mouse fibroblasts, retroviral vector
Experimental: (§1) For western blotting, cells were plated in 2 mL growth medium into 6-well dishes (500,000 cells per well) and allowed to attach overnight. The medium was replaced with 2 mL MCDB 105 (UCSF Cell Culture Facility) supplemented with 1% FBS. The plates were then incubated overnight at 37° C., ambient CO2. […] After a 7 min incubation at room temperature with ligand, the plates were put on ice and washed three times with 1 mL ice-cold PBS plus 1 mM orthovanadate. Lysis was achieved by pipetting cells in 0.5 mL of buffer containing 50 mM Tris, pH 7.4, 10% glycerol, 1% NP-40, 2 mM EDTA, 1 mM sodium vanadate (Na3 VO4), 10 mM pyrophosphate, 1 mM PMSF, […]. A 300 μL aliquot of each lysate was immediately added to 100 μL 4×Laemmli sample buffer ([…] Tris pH 6.9, 20% glycerol, 7% SDS, 5 mM EDTA, 5% β-mercaptoethanol) containing phosphatase inhibitors, 2 mM Na3 VO4 and 10 mM pyrophosphate. Samples were boiled for 5 min, frozen in dry ice-ethanol, and stored at -80° C. Proteins were resolved by SDS-PAGE (Bio-Rad Miniprotean II) and transferred to nitrocellulose membrane (Schleicher & Schuell) at 120 volts for 1 hr at room temperature in buffer containing 25 mM Tris pH 8.3, 20% methanol, 0.2 M glycine, 0.1% SDS. The integrity of the protein-to-membrane transfer was determined by staining with 1% Ponceau S in 5% acetic acid for 5 min. After destaining in several distilled water rinses, the membrane was soaked overnight in blocking buffer containing 5% milk in Tris-buffered saline, 0.05% Tween 20. Phosphotyresine was detected by incubating the membrane (1 hr at room temperature) with an anti-phosphotyosine antiserum diluted in blocking buffer at 1:3000. For C6 cells, PDGF-β receptor content in the lysates was confirmed in duplicate sample lanes by western blotting using an antibody specific for PDGF-β receptor (UBI). The antibodies were visualized using ECL reagent from Amersham and by exposure to Fuji RX film.
(§2) For ELISA assays, cells were grown to 80-90% confluency in growth medium and seeded in 96-well tissue culture plates in 0.5% serum at 25,000 to 30,000 cells per well. After overnight incubation in 0.5% serum-containingmedium, cells were changed to serum-free medium and treated with test compound for 2 hr in a 5% CO2, 37° C. incubator. Cells were then stimulated with ligand for 5-10 min followed by lysis with HNTG (20 mM Hepes, 150 mM NaCl, 10% glycerol, 5 mM EDTA, 5 mM Na3 VO4 0.2% Triton X-100, and 2 mM NaPyr). Cell lysates (0.5 mg/well in PBS) were transferred to ELISA plates previously coated with receptor-specific antibody and which had been blocked with 5% milk in TBST (50 mM Tris-HCl pH 7.2, 150 mM NaCl and 0.1% Triton X-100) at room temperature for 30 min. Lysates were incubated with shaking for 1 hr at room temperature. The plates were washed with TBST four times and then incubated with polyclonol anti-phosphotyrosine antibody at room temperature for 30 min. Excess anti-phosphotyrosine antibody was removed by rinsing the plate with TBST four times. Goat anti-rabbit IgG antibody was added to the ELISA plate for 30 min at room temperature followed by rinsing with TBST four more times.
(§3) The ability of different compound to inhibit different receptor tyrosine kinases was tested.

[2] = test system: U1242 cells; test: Cytotoxicity in U1242 cells, LDH; format: cell-based; conditions: Homo sapiens, read-out: CYTOXICITY LDH U1242 LD50
Experimental: The cytotoxicity of each drug was also determined. The cells were plated as described above. Following incubation with drug, cell survival was measured by an MTT assay as described by Mossman J. Immunol. Methods 65:55-63 (1983), or by measuring the amount of LDH released (Korzeniewski and Callewaert, J. Immunol. Methods 64:313 (1983); Decker and Lohmann-Matthes, J. Immunol. Methods 115:61 (1988) .

[3] = test system: HER2; test: Receptor tyrosine kinase inhibition, HER2; format: cell-based; conditions: for IC50: read-out: HER2 IC50
Experimental: as §1, §2, §3

[4] = test system: C6 cells; test: C6 SRB growth assay; format: cell-based, rat
[5] = target: T2, EGFR (Homo sapiens, UniProt P00533); test: Receptor tyrosine kinase inhibition, EGFR; format: cell-based
T2 construct: expressed in transfected cells; host or cells: NIH3T3 mouse fibroblasts, retroviral vector
T2 sequence (P00533 25-1210): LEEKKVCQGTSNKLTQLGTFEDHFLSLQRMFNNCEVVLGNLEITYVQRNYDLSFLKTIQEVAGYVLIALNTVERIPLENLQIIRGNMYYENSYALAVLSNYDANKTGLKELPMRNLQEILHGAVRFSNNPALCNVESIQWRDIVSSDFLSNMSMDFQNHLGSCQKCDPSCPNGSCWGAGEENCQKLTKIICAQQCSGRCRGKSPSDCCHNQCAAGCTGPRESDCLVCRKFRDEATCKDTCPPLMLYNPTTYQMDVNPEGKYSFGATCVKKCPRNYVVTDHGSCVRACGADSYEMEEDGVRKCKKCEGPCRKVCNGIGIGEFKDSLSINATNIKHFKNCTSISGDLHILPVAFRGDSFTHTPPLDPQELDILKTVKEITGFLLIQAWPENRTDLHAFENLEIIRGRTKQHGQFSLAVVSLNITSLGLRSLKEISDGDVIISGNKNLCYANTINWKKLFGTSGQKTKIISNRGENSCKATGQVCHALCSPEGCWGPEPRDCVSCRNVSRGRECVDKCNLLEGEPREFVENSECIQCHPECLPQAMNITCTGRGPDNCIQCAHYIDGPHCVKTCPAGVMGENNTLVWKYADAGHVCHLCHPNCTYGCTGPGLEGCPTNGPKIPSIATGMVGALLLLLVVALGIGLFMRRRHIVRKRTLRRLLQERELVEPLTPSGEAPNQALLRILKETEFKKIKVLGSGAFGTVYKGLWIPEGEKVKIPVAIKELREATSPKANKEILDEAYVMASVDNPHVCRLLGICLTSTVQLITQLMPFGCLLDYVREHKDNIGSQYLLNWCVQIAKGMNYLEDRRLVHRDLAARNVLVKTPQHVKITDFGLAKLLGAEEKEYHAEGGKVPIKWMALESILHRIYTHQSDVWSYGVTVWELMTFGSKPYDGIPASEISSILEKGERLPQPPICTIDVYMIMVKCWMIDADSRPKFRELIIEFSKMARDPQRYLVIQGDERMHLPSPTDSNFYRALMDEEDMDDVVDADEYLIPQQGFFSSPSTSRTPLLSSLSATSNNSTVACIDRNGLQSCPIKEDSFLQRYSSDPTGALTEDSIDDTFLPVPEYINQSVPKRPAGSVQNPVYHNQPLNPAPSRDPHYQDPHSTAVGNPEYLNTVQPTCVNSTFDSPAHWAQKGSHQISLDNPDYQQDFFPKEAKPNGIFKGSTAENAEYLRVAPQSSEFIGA
Experimental: as §1, §2, §3

[6] = Rattus norvegicus, C6; read-out: C6 SRB IC50
[7] = heading: CYTOXICITY LDH U1242 LD50
[8] = W = done in Western assay, read-out: FLK-1 IC50 (W)

T1 sequence (P35918 20-1345): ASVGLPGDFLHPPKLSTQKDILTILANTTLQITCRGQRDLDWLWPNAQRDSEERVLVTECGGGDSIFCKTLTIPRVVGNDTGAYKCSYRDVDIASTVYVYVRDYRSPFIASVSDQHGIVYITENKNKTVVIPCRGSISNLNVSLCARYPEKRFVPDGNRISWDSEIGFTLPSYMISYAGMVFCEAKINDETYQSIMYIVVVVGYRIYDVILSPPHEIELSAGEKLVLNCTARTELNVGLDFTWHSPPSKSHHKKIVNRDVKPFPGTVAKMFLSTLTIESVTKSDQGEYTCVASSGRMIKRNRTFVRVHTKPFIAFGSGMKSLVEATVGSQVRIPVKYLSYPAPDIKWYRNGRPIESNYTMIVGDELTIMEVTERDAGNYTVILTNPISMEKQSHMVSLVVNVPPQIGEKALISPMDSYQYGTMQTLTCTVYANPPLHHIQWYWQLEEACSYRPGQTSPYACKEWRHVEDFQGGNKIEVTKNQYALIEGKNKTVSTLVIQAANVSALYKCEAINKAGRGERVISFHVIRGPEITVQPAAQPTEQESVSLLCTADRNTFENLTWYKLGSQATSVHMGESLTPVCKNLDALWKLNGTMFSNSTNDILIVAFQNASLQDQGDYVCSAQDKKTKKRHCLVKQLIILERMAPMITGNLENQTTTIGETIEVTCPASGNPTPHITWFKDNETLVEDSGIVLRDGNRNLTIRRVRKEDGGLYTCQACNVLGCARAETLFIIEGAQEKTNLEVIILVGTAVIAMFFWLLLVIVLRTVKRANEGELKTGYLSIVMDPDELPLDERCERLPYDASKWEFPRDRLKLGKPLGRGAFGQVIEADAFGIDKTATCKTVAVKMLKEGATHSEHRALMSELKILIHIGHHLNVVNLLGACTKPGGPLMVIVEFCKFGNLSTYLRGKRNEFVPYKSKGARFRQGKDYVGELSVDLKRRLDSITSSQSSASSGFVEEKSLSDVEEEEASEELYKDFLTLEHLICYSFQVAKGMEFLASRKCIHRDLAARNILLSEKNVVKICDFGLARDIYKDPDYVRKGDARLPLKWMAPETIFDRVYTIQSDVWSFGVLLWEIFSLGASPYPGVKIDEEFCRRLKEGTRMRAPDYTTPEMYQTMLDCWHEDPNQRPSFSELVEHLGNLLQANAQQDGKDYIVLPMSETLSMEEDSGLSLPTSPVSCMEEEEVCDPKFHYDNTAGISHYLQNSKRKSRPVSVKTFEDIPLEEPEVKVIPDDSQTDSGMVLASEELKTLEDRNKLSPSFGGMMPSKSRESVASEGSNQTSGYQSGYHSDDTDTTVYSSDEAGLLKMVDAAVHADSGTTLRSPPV

Row | Compound | IC50 ([1]; read-out: FLK-1 IC50) [µM] | CC50 [2] [µM] | IC50 [3] [µM] | IC50 [4, 6] [µM] | HER2 phosphorylation [3] | EGF receptor phosphorylation [5] | also measured
1 | N#CC(=Cc1c[nH]c2ccccc12)C(N)=S [Compound D11] | > 50 | – | – | – | – | – | –
2 | c1ccc(-c2cnc3cc4ccccc4cc3n2)cc1 [Compound G22] | – | > 100 | > 50 | > 6 | – | – | IC50 ([5]; read-out: EGFR ID50): > 100 µM
3 | CN(C)CCCn1cc(C=C(C#N)c2[nH]nc(N)c2C#N)c2ccccc21 [Compound D15] | > 50 | – | – | – | – | – | –
4 | O=c1c2ccccc2nc(C=Cc2ccc(O)c(O)c2)n1CCO [Compound F10] | > 50 | – | – | > 12.5 | – | – | –
5 | N#CC(=Cc1c[nH]c2ccccc12)c1[nH]nc(N)c1C#N [Compound D14] | > 50 | > 100 | > 50 | – | do not effect EGF or HER2 phosphorylation | do not effect EGF or HER2 phosphorylation | IC50 ([5]; read-out: EGFR ID50): > 100 µM
6 | Cc1oncc1C(=O)Nc1ccc(C(F)(F)F)cc1 [Compound A10, 5-methylisoxazole-4 carboxylic acid-(4-trifluromethyl)-anilide] | – | – | – | – | little if any effect on EGF-receptor or HER2 phosphorylation | little if any effect on EGF-receptor or HER2 phosphorylation | IC50 ([4]; Rattus norvegicus, C6; PDGF-R expression ++; read-out: SRB): 0.3 µM
7 | Cc1cc2nc(-c3ccccc3)c(=O)[nH]c2cc1C [Compound G18] | – | > 100 | – | – | – | – | IC50 ([5]; W = done in Western assay, read-out: EGFR ID50 (W)): 500 µM
8 | COc1cc2ncc(-c3ccccc3)nc2cc1OC [Compound G14] | – | – | – | > 50 | do not effect EGF or HER2 phosphorylation | do not effect EGF or HER2 phosphorylation | CC50 [2, 7]: > 100 µM; IC50 [1, 8]: > 30 µM
9 | Cc1cc2ncc(-c3ccccc3)nc2cc1C [Compound G13] | – | – | > 50 | – | do not effect EGF or HER2 phosphorylation | do not effect EGF or HER2 phosphorylation | CC50 [2, 7]: > 100 µM; IC50 ([4]; Rattus norvegicus, C6, read-out: C6 SRB IC50): > 50 µM; IC50 [1, 8]: > 10 µM
